# Test results taken from ChEMBL document CHEMBL5154908, “Design, Synthesis, and Biological Characterization of Inhaled p38α/β MAPK Inhibitors for the Treatment of Lung Inflammatory Diseases” (J Med Chem, 2022).
# Tested on: not listed separately
# Experiment: Inhibition of LPS-stimulated TNFalpha release in human PBMC cells preincubated for 1 hr followed by LPS stimulation and measured after 18 hrs
# Type: functional, cell-based
# Conditions: not given
row,SMILES,IC50
1,CC(C)(C)c1cc(NC(=O)NCc2ccccc2Sc2ccc3nnc(-c4ccccc4SCCO)n3c2)n(-c2ccc(O)c(Cl)c2)n1 [PF-03715455],8 nM

# Biological target: T1, Mitogen-activated protein kinase 14 (Homo sapiens, UniProt Q16539)
# Experiment: Displacement of SKF-86002 from human inactivated p38alpha assessed as dissociation half life incubated for 2 hrs by fluorescence based analysis
# Conditions: not given
# T1 sequence (Q16539 whole entry): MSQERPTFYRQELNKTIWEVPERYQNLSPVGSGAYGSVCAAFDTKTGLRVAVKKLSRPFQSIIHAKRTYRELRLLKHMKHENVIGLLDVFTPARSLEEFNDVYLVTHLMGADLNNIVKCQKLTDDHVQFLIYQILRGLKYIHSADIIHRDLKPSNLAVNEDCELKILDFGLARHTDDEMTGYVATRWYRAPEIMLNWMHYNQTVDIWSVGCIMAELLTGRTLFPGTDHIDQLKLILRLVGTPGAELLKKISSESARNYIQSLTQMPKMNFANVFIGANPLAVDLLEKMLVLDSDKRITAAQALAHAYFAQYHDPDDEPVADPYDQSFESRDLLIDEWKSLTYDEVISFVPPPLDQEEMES
row,SMILES,T1/2
1,C[C@H]1CCCCN1c1nnc2ccc(O[C@@H]3CC[C@H](NC(=O)Nc4cc(C(C)(C)C)nn4-c4cnn(CCN(C)C)c4)c4ccccc43)cn12,> 16 h

# Tested on: Rattus norvegicus
# Experiment: Antiinflammatory activity against LPS-induced Sprague-Dawley rat inflammatory model assessed as inhibition of neutrophil cells release in BALF at 0.1 mg/kg, IT preincubated for 2 hrs followed by LPS-stimulation and measured after 4 hrs relative to control
# Type: functional
# Parameters: scale not given: the % may be the effect or the level left
# Conditions: time 6 hrs
row,SMILES,Activity
1,CC(C)(C)c1cc(NC(=O)NCc2ccccc2Sc2ccc3nnc(-c4ccccc4SCCO)n3c2)n(-c2ccc(O)c(Cl)c2)n1 [PF-03715455],14%

# Biological target: Ephrin type-A receptor 4 (Homo sapiens) (UniProt P54764)
# Experiment: Inhibition of EphA4 (unknown origin) at 1 uM relative to control
# Conditions: not given
# Sequence of Ephrin type-A receptor 4 (Homo sapiens) (P54764 whole entry): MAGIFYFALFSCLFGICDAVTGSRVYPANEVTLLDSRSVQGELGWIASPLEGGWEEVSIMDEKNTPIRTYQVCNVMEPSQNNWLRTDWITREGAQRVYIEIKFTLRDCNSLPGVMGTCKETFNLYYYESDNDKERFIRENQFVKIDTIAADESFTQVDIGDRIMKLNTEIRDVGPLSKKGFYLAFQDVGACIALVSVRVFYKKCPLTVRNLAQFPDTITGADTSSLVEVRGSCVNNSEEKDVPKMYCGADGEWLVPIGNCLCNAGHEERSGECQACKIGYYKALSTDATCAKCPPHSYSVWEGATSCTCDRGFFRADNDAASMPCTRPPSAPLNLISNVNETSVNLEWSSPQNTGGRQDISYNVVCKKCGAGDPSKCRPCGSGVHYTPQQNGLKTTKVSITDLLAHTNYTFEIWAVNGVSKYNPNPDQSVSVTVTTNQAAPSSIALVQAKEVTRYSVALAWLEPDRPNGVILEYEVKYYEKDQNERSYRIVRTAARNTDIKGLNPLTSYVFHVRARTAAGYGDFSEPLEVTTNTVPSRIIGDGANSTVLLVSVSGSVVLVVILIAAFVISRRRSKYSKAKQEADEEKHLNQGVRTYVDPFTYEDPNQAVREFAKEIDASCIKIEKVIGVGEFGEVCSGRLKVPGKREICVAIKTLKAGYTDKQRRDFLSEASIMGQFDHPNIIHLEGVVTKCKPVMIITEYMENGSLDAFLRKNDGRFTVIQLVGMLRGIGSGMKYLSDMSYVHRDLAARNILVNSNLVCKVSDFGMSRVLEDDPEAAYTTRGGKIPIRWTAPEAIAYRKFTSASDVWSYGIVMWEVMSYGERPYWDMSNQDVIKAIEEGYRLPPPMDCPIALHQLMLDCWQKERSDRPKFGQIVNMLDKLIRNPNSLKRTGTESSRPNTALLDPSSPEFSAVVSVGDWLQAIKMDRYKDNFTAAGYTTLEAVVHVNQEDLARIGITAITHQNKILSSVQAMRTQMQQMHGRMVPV
row,SMILES,inhibition
1,C[C@H]1CCCCN1c1nnc2ccc(O[C@@H]3CC[C@H](NC(=O)Nc4cc(C(C)(C)C)nn4-c4cnn(CCN(C)C)c4)c4ccccc43)cn12,82%

# Biological target: Epithelial discoidin domain-containing receptor 1 (Homo sapiens) (UniProt Q08345)
# Experiment: Inhibition of human DDR1 at 100 nM by KINOMEscan assay relative to control
# Conditions: not given
# Sequence of Epithelial discoidin domain-containing receptor 1 (Homo sapiens) (Q08345 whole entry, the tested form may be a part): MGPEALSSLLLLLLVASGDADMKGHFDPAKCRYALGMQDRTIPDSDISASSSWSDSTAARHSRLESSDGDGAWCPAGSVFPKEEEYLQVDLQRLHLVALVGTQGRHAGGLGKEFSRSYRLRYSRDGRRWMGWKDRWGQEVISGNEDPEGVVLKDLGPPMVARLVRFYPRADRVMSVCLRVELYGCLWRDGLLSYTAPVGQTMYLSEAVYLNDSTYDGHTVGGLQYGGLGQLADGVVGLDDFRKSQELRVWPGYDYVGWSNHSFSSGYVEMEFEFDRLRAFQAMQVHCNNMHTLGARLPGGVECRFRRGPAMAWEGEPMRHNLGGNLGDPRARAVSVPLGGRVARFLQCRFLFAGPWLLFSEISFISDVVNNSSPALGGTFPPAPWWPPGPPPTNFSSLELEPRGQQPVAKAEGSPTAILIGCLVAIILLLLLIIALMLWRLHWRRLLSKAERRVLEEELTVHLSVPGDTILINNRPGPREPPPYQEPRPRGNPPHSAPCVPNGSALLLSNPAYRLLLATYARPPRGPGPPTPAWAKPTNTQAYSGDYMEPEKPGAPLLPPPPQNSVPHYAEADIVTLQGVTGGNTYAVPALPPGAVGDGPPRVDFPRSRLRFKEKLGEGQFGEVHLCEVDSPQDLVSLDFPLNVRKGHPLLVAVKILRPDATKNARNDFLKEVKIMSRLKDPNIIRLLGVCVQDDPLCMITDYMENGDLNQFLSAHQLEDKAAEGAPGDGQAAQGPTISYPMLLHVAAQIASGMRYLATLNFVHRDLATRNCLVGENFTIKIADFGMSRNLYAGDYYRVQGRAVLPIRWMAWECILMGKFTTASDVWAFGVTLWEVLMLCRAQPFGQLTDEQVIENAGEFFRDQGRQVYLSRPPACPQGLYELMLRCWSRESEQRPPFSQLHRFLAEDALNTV
row,SMILES,inhibition
1,C[C@H]1CCCCN1c1nnc2ccc(O[C@@H]3CC[C@H](NC(=O)Nc4cc(C(C)(C)C)nn4-c4cnn(CCN(C)C)c4)c4ccccc43)cn12,> 50%

# Biological target: T2, Discoidin domain-containing receptor 2 (Homo sapiens) (UniProt Q16832)
# T2 sequence (whole entry): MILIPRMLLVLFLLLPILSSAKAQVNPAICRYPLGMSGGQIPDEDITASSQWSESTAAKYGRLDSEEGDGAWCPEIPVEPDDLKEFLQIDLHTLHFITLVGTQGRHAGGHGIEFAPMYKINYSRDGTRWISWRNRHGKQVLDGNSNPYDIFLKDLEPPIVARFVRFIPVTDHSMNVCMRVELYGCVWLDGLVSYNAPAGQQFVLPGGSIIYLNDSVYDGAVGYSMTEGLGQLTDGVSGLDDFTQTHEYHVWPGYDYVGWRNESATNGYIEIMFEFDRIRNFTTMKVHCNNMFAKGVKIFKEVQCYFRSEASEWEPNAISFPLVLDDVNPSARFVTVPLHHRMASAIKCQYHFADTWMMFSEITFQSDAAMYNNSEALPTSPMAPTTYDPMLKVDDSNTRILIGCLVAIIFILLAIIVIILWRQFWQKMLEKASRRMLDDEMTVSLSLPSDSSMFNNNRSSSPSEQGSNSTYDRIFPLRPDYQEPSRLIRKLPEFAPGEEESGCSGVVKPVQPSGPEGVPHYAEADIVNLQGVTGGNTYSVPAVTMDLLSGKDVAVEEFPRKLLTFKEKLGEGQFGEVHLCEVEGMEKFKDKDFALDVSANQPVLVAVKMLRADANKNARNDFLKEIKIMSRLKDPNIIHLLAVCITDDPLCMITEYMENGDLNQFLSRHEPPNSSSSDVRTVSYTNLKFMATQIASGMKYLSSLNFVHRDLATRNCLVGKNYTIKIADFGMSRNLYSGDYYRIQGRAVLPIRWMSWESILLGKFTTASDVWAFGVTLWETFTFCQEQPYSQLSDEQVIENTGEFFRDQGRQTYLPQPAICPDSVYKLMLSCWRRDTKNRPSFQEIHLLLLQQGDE
# Experiment: Inhibition of human DDR2 at 100 nM by KINOMEscan assay relative to control
# Conditions: not given
row,SMILES,inhibition
1,C[C@H]1CCCCN1c1nnc2ccc(O[C@@H]3CC[C@H](NC(=O)Nc4cc(C(C)(C)C)nn4-c4cnn(CCN(C)C)c4)c4ccccc43)cn12,> 50%

# Biological target: TRAF2 and NCK-interacting protein kinase (Homo sapiens) (UniProt Q9UKE5)
# Experiment: Inhibition of TNIK (unknown origin) at 100 nM by KINOMEscan assay relative to control
# Conditions: not given
# Sequence of TRAF2 and NCK-interacting protein kinase (Homo sapiens) (Q9UKE5 whole entry, looked up): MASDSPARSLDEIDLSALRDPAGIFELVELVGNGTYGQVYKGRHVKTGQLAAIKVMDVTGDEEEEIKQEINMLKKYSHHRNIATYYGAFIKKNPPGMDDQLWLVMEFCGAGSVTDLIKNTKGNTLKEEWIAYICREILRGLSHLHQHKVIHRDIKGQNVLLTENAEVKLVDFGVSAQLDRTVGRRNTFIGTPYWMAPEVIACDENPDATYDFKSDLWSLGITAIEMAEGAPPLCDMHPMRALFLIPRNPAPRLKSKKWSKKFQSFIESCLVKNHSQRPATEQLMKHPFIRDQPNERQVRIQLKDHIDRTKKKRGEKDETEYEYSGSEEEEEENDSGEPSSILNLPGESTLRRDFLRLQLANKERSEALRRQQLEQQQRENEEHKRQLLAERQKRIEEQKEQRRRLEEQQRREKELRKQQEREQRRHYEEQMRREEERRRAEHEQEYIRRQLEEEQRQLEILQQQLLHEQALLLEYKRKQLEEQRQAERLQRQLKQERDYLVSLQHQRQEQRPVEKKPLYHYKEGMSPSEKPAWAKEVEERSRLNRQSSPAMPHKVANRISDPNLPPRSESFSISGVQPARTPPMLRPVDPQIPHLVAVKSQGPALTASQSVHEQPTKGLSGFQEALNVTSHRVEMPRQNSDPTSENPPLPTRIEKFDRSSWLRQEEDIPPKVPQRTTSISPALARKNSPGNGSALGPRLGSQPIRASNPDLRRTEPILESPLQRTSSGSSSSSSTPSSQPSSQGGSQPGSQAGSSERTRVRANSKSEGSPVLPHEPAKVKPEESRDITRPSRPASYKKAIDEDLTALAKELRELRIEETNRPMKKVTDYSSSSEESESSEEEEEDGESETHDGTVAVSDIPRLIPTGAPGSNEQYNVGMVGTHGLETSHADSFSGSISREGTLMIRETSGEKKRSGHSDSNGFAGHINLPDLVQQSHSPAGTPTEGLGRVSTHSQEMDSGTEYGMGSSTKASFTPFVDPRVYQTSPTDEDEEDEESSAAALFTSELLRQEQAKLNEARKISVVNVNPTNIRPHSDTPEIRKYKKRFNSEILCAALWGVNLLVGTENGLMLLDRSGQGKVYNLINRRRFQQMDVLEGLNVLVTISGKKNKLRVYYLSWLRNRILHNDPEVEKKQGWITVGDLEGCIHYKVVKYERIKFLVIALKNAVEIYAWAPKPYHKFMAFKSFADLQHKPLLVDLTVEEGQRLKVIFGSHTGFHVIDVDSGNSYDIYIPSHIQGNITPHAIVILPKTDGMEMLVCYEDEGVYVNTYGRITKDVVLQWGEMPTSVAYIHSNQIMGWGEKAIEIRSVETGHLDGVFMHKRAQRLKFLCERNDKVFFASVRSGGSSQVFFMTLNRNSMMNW
row,SMILES,inhibition
1,C[C@H]1CCCCN1c1nnc2ccc(O[C@@H]3CC[C@H](NC(=O)Nc4cc(C(C)(C)C)nn4-c4cnn(CCN(C)C)c4)c4ccccc43)cn12,> 50%

# Biological target: Citron Rho-interacting kinase (Homo sapiens) (UniProt O14578)
# Experiment: Inhibition of human CIT at 100 nM by KINOMEscan assay relative to control
# Conditions: not given
row,SMILES,inhibition
1,C[C@H]1CCCCN1c1nnc2ccc(O[C@@H]3CC[C@H](NC(=O)Nc4cc(C(C)(C)C)nn4-c4cnn(CCN(C)C)c4)c4ccccc43)cn12,> 50%

# Biological target: T1, Mitogen-activated protein kinase 14
# Experiment: Binding affinity to biotinylated P38alpha assessed as dissociation half life by SPR analysis
# Conditions: not given
row,SMILES,T1/2
1,C[C@H]1CCCCN1c1nnc2ccc(O[C@@H]3CC[C@H](NC(=O)Nc4cc(C(C)(C)C)nn4-c4cnn(CCN(C)C)c4)c4ccccc43)cn12,51 h
